Publication PMC12391994, “Synthesis of a fac-Tricarbonylrhenium(I) Complex with Pyrithione, Its Physicochemical Characterization, and Assessment of Biological Effects” (ACS Omega, 2025)
Like-named read-outs stand apart in the source and are kept apart here. Marks after values point to notes of the source that are not given here.

What was measured:
[1] = biological target: T1, cathepsin B (endopeptidase activity) (Homo sapiens, UniProt P07858); assay: Relative inhibition of cathepsin B endopeptidase activity; format: biochemical; conditions: 50 μM; substrate Z-Arg-Arg-AMC; pH 6.0
T1 construct: made in house; host or cells: E. coli
Text: Relative inhibition is expressed as a percentage of the decrease in reaction velocity in the presence of an inhibitor, in comparison to the reaction velocity in the absence of an inhibitor. For that purpose, the specific fluorogenic substrates Z-Arg-Arg-7-amido-4-methylcoumarin (Z-Arg-Arg-AMC) and 2-aminobenzoyl (Abz)-Gly-Ile-Val-Arg-Ala-Lys-(Dnp)-OH were used for cathepsin B endopeptidase and exopeptidase activities, respectively, and Z-Phe-Arg-AMC was used for cathepsin L and V activities.
(§1) Human recombinant cathepsin B was expressed in E. coli, recombinant cathepsin V was expressed in Pichia pastoris, and human recombinant cathepsin L was expressed in E. coli, as reported. − For the determination of cathepsin B endopeptidase and exopeptidase activities, 100 mM phosphate buffer (pH 6.0) and 60 mM acetate buffer (pH 5.0) were used, respectively, and for the determination of cathepsin V and L activities, 100 mM acetate buffer (pH 5.5) was used. All buffers contained 0.1% PEG 8000 (Sigma-Aldrich, St. Louis, MO), 5 mM cysteine, and 1.5 mM EDTA. Prior to the assay, the enzymes were activated in the assay buffer for 5 min at 37 °C.
To determine the effect of inhibitors on enzyme activity, the following substrates were used: Z-Arg-Arg-AMC (final concentration 5 μM, Z-RR-AMC; Bachem, Bubendorf, Switzerland) for cathepsin B endopeptidase activity, Abz-Gly-Ile-Val-Arg-Ala-Lys-(Dnp)-OH (final concentration 1 μM, Abz-GIVRAK-(Dnp)-OH; Bachem) for cathepsin B exopeptidase activity, and Z-Phe-Arg-AMC (final concentration 2 μM, Z-FR-AMC; Bachem) for cathepsin V and L activity. The substrate ([…]) at a final concentration and inhibitor ([…]) at a concentration of 50 μM were added to the wells of a black microplate. The reaction was then initiated by adding 90 μL of activated enzyme (final concentrations: 5 nM cathepsin B for its endopeptidase activity, 0.5 nM cathepsin B for its exopeptidase activity, 2.5 ng/mL for cathepsin V, and 0.02 nM for cathepsin L) in the assay buffer. The formation of fluorescent degradation products during the reaction was continuously monitored at 460 ± 10 nm with excitation at 380 ± 20 nm for Z-Arg-Arg-AMC and Z-Phe-Arg-AMC and at 420 ± 10 nm with excitation at 320 ± 20 nm for Abz-Gly-Ile-Val-Arg-Ala-Lys(Dnp)-OH at 37 °C on a Tecan Infinite M1000 (Mannedorf, Switzerland) spectrofluorometer. All assay mixtures contained 5% (v/v) DMSO. To prevent false-positive inhibition due to the formation of compound aggregates, 0.01% Triton X-100 was used. All measurements were performed in triplicate and repeated twice. The relative inhibition was calculated using the following equation: relative inhibition (%) = 100(1 – v i/v o), where v i and v o designate the reaction velocities in the presence and absence of inhibitor, respectively.

[2] = Stability/transformation in aqueous solution (1H NMR, UV-vis, CZE); format: physicochemical
Description: A Bruker Avance III HD Ascend 500 Plus instrument (Billerica, MA) was used for solution NMR studies. Spectra were recorded with a WATERGATE water suppression pulse scheme in the presence of 10% (v/v) D2O in most cases. DSS internal standard was added to samples to obtain reference peaks.

[3] = biological target: T2, cathepsin B (exopeptidase activity) (Homo sapiens, UniProt P07858); assay: Determination of inhibition constants, cathepsin B exopeptidase activity; format: biochemical; conditions: substrate Abz-GIVRAK(Dnp)-OH, mixed inhibition
T2 construct: made in house; host or cells: E. coli
Description: as §1
Inhibition constants were calculated from the reaction velocities measured at three substrate concentrations (the substrate Z-Arg-Arg-AMC at concentrations of 60, 180, and 360 μM and the substrate Abz-Gly-Ile-Val-Arg-Ala-Lys(Dnp)-OH at concentrations of 1, 3, and 6 μM to assess cathepsin B endopeptidase and exopeptidase activity, respectively) in the presence of seven concentrations of the inhibitor (0, 20, 40, 60, 80, 100, and 200 μM). […] Formation of fluorescent degradation products was monitored as described above. […]

[4] = pH-dependent UV-vis spectrophotometry (solution speciation, pKa of aqua ligand); format: physicochemical; conditions: between pH 3 and 8, no spectral changes
Text: However, at pH > ∼8, the spectrum changes considerably (Figure ).
The isosbestic point indicates a single equilibrium process, which is most likely deprotonation of the coordinated aqua ligand in complex 4a. This process was studied in our previous work for similar fac-[Re(CO)3] complexes formed with (N,N)-bearing ligands, and the calculated pK a (H2O) is around 8. […] Similar pK a values in the presence and absence of the chloride ions indicate a low chloride affinity of the aqua complex. Based on these values, the fraction of [Re(CO)3(pth)(H2O)] is 100% at pH = 7.4. The analogous half-sandwich complex [Ru(cym)(pth)(H2O)]^+ was also characterized by high solution stability, and a similarly high pK a value (10.34 (0.2 M KCl)).
For the solution studies, an Agilent Cary 3500 spectrophotometer was utilized to obtain UV–vis spectra in the wavelength range of 200–1100 nm. The path length ( l ) was 1 cm in all cases. The concentrations of the complex were between 10 and 60 μM. For investigation of the effect of chloride ions, the samples contained 60 μM complex and 0–7300 equiv of Cl^–. For HSA-containing samples, complex concentrations were 60 μM, and 0.5 equiv of biomolecule (or 6 equiv of MIM) was added for kinetic studies, respectively. Individual samples contained 0–34 μM HSA. The computer program HypSpec was used to obtain equilibrium constants.

[5] = 10 mM HEPES pH 7.4, 25.0 °C
Description: Distribution coefficients (D 7.4) were determined using n-octanol/buffered aqueous solution (10 mM HEPES, pH = 7.4) partitioning (Table ).
The traditional shake-flask method was used to obtain the distribution coefficient of the complex in n-octanol/buffered aqueous solution (10 mM HEPES, pH = 7.4) using UV–vis spectrophotometry. The measurements and data evaluation were performed as in our previous work.

N#Cc1ccccc1.[C-]#[O+].[C-]#[O+].[C-]#[O+].[O-]n1ccccc1=S.[Re+] [complex 4, fac-[Re(CO)3(pth)(benzonitrile)]]
relative inhibition cathepsin B endopeptidase [1]: 63.6 ± 0.8%
time for complete release of the benzonitrile ligand ([2]; water pH 6.8 and pH 7.4 (phosphate or HEPES buffer), kept in the dark, 1H NMR): ≤ 1 h
dissociation of the pyrithione ligand ([2]; water pH 6.8 and pH 7.4 buffers, dark, 48 h): did not occur within 48 h
Ki′ (dissociation of enzyme–substrate–inhibitor complex), exopeptidase activity [3]: 67.0 ± 8.3 ^d μM
Ki ([3]; read-out: Ki (dissociation of enzyme–inhibitor complex), exopeptidase activity): 165 ± 76 µM
integrity of the complex (aqua form) from UV-vis spectra [4]: remains intact
log D7.4 ([5]; c(Cl–) 0 mM): +1.61 ± 0.18
log D7.4 ([5]; c(Cl–) 4 mM): +1.67 ± 0.14
log D7.4 ([5]; c(Cl–) 24 mM): +1.71 ± 0.13
log D7.4 ([5]; c(Cl–) 100 mM): +1.71 ± 0.14
